Assay results from paper PMC7918738, “Microtubule Destabilizing Sulfonamides as an Alternative to Taxane-Based Chemotherapy” (International Journal of Molecular Sciences, 2021).
Converted amounts (≈) assume the structure as drawn.

How the values were obtained:
[1] = tested on: HeLa (cervix epithelioid carcinoma); assay: Antiproliferative activity against HeLa (XTT colorimetric method); assay type: cell-based; details: Homo sapiens, 72 h treatment
Description: (§1) The in vitro antiproliferative activity of MDS at 1 µM after 72 h treatments was evaluated by a colorimetric method against the human tumor cell lines HeLa (cervix epithelioid carcinoma) and MCF7 (breast adenocarcinoma). Compounds showing more than 40% inhibition at 1 µM in at least three independent assays were evaluated in a range of concentrations between 0.1 nM and 10 µM for the determination of half-maximal inhibitory concentrations (IC50) (Table 1). Paclitaxel, CA-4, and ABT-751 were used as references.
(§2) MCF7 (human breast carcinoma), SKOV-3 (human ovarian carcinoma), OVCAR-3 (human ovarian carcinoma), OVCAR-8 (human ovarian carcinoma), and HeLa (human cervical carcinoma) cell lines were cultured in Dulbecco’s Modified Eagle’s Medium (DMEM) (Gibco, Thermo Fischer Scientific) containing 10% (v/v) heat-inactivated fetal bovine serum (HIFBS) (Lonza-Cambrex, Karlskoga, Sweden), 2 mM L-glutamine (Lonza-Cambrex, Karlskoga, Sweden), 100 μg/mL streptomycin, and 100 IU/mL penicillin (Lonza-Cambrex) at 37 °C in humidified 95% air and 5% CO2. HT-29 (human colon carcinoma), IGROV-1 (human ovarian carcinoma), and A2780 (human ovarian carcinoma) cell lines were cultured in RPMI 1640 medium (Gibco, Thermo Fischer Scientific) supplemented with 10% HIFBS, 100 μg/mL streptomycin, and 100 IU/mL penicillin at 37 °C in humidified 95% air and 5% CO2 atmosphere. The presence of mycoplasma was routinely checked with MycoAlert kit (Lonza-Cambrex) and only mycoplasma-free cells were used in the experiments. Ovarian tumor cell lines were originally acquired from Dr Atanasio Pandiella from Centro de Investigación del Cáncer (CIC), Salamanca, Spain. HeLa, HT-29 and MCF7 tumor cell lines were provided by Dr Faustino Mollinedo from Centro de Investigaciones Biológicas Margarita Salas, Madrid, Spain.
(§3) MCF7, HeLa, and HT-29 cell proliferation, when treated with the corresponding compounds, were determined using the XTT (sodium 3’-[1(phenylaminocarbonyl)-3,4-tetrazolium]-bis(4-methoxy-6-nitro)-benzenesulfonic acid hydrate) cell proliferation kit (Roche Molecular Biochemicals, Mannheim, Germany). A freshly prepared mixture of XTT labeling reagent with 0.02% (v/v) PMS (N-methyl-dibenzopyrazine methyl sulfate) electron coupling reagent was added to cells (50 µL/well in 96-well plates, total volume of 160 µL/well). Cells were incubated under standard culture conditions for 4 h (MCF7 and HeLa) or 6 h (HT-29). The absorbance of the formazan product generated was measured at 450 nm using a multi-well plate reader. SKOV-3, OVCAR-3, OVCAR-8, IGROV-1, A-2780 cell proliferation, when treated with the corresponding compound, were determined using MTT (3-(4,5-dimethylthiazol-2-yl)-2,5-diphenyl-2H-tetrazolium bromide) (Sigma-Aldrich, St. Louis, MO, USA). MTT in Phosphate Buffer Saline (PBS) (5 mg/ml) was added to cells (110 µL/well in 24-well plates, total volume of 1110 µL/well). After 1 hour of incubation, the medium was aspirated, and formazan violet crystals were dissolved in dimethyl sulfoxide (DMSO) (500 µL/well). Absorbance was measured at 570 nm in a plate reader (Ultra Evolution, Tecan, Männedorf, Suiza). To determine cell viability, cells in exponential growth phase were seeded (100 µL/well in 96-well plates and 1000 µL/well in 24-well plates) with appropriate cell line concentration (1.5·10^4 cells/mL for MCF7 and HeLa, 3·10^4 cells/mL for HT-29, and 1·10^4 cells/mL for SKOV-3, OVCAR-3, OVCAR-8, IGROV-1, and A-2780) in complete RPMI 1640 or DMEM medium at 37°C and 5% CO2 atmosphere. After 24 h incubation, to allow cells to attach to the plates, all compounds were added at 1 µM concentration and the effect on the proliferation was evaluated 72 h post-treatment. Compounds showing antiproliferative effects at tested concentration were selected for IC50 calculation (50% inhibitory concentration with respect to the untreated controls) from 10^−5 to 10^−10 M concentration. Non-linear curves fitting the experimental data were carried out for each compound. […]

[2] = tested on: MCF7 (breast adenocarcinoma); assay: Antiproliferative activity against MCF7 (XTT colorimetric method); assay type: cell-based; details: Homo sapiens, 72 h treatment
Description: as §1, §2, §3

[3] = tested on: tubulin (microtubular protein isolated from calf brain); assay: Tubulin Polymerization Inhibition (TPI) assay, turbidity; assay type: biochemical; details: 1.5 mg/mL microtubular protein
Description: The effect of all the synthesized compounds on the in vitro tubulin polymerization was evaluated at 10 µM. All the compounds that inhibited polymerization more than 30% were also assayed at 20 µM. IC50 values were calculated for those compounds inhibiting tubulin polymerization by at least 50% at 20 µM (Table 1 and Supplemental Figure S2).
Microtubular protein was isolated from calf brain according to the modified Shelanski method by two cycles of temperature-dependent assembly/disassembly and stored at −80 °C. Before each use, protein concentration was determined by the Bradford method taking BSA as standard.
Tubulin polymerization was monitored using a Helios α spectrophotometer by measuring the increase in turbidity at 450 nm, caused by a shift from 4 °C to 37 °C, which allows the in vitro microtubular protein to depolymerize and polymerize, respectively. The assay was carried out in quartz cuvettes containing 1.5 mg/mL microtubular protein and the ligand (except for control cuvette with only DMSO at the same concentration) in a mixture of 0.1 M MES buffer, 1 mM EGTA, 1 mM MgCl2, 1 mM β-ME, and 1.5 mM GTP at pH 6.7 (final volume 500 µL). Cuvettes were preincubated at 20 °C for 30 min, to allow ligand binding to tubulin, and subsequently cooled on ice for 10 min. Then, the experiment starts at 4 °C to establish the initial baseline. The assembly process was initiated by a temperature shift to 37 °C and the turbidity produced by tubulin polymerization can be measured by an absorbance increase. After reaching a stable plateau, the temperature was switched back to 4 °C to return to the initial absorption values (to confirm the reversible nature of the monitored process and to determine whether or not the microtubular tubular protein has stabilized). The difference in amplitude between the stable plateau and the initial baseline of the curves was taken as the degree of tubulin polymerization for each experiment. Comparison with control curves under identical conditions but without ligands yielded TPI as a percentage value. All compounds were tested at 10 µM concentration. Compounds that inhibited tubulin polymerization by at least 30% at 10 µM were tested at 20 µM. IC50 values were calculated for compounds that inhibit tubulin polymerization by more than 50% at 20 µM. Compounds were dissolved in DMSO, and the final solvent concentration never exceeded 4% (v/v), which has been reported not to interfere with the assembly process. All the measurements were carried out in at least two independent experiments using microtubular protein from different preparations.

[4] = Aqueous solubility, saturation shake-flask method, UV absorbance; details: pH 7, aqueous buffer, thermodynamic from solid
Description: UV absorbance at three maximum absorbance wavelengths of selected compounds was measured after 48 h shaking and subsequent microfiltration.
The aqueous solubility of the sulfonamides was determined using an approach based on the saturation shake-flask method. Tested compounds (1–2 mg) were stirred in pH 7.0 phosphate buffer (300 µL) for 48 h at room temperature. The resulting suspension was filtered over a 45 µm filter to discard insoluble residues, and the concentration in the supernatant was measured by UV absorbance. To determine the concentration, a scan between 270 and 400 nm was performed in a Helios-α UV-320 Spectrophotometer (Thermo-Spectronic, Thermo Fischer Scientific, Waltham, MA, USA) for each tested compound. Then, three maximum wavelengths of absorbance per compound were selected from the previous scan and calibration curves were performed at these three wavelengths. Solubility results are given as the average of the three measurements.

[5] = tested on: HT-29 (colon adenocarcinoma); assay: Antiproliferative activity against CA-4-resistant HT-29 with or without verapamil (sensitivity to MDR pumps, XTT); assay type: cell-based, human; details: verapamil alone at 10 µM
Description: Detecting changes in drug potency when inhibiting MDR-mediated efflux reflect that these transporters reduce the intracellular drug concentration. HT-29 has been reported to express moderate levels of MDR1, accounting for a resistant phenotype. A comparison of the antiproliferative IC50 values of each MDS in the presence or absence of verapamil provides an estimate of the susceptibility of each compound to efflux pumps.
as §2
MCF7, HeLa, and HT-29 cell proliferation, when treated with the corresponding compounds, were determined using the XTT (sodium 3’-[1(phenylaminocarbonyl)-3,4-tetrazolium]-bis(4-methoxy-6-nitro)-benzenesulfonic acid hydrate) cell proliferation kit (Roche Molecular Biochemicals, Mannheim, Germany). A freshly prepared mixture of XTT labeling reagent with 0.02% (v/v) PMS (N-methyl-dibenzopyrazine methyl sulfate) electron coupling reagent was added to cells (50 µL/well in 96-well plates, total volume of 160 µL/well). Cells were incubated under standard culture conditions for 4 h (MCF7 and HeLa) or 6 h (HT-29). The absorbance of the formazan product generated was measured at 450 nm using a multi-well plate reader. SKOV-3, OVCAR-3, OVCAR-8, IGROV-1, A-2780 cell proliferation, when treated with the corresponding compound, were determined using MTT (3-(4,5-dimethylthiazol-2-yl)-2,5-diphenyl-2H-tetrazolium bromide) (Sigma-Aldrich, St. Louis, MO, USA). MTT in Phosphate Buffer Saline (PBS) (5 mg/ml) was added to cells (110 µL/well in 24-well plates, total volume of 1110 µL/well). After 1 hour of incubation, the medium was aspirated, and formazan violet crystals were dissolved in dimethyl sulfoxide (DMSO) (500 µL/well). Absorbance was measured at 570 nm in a plate reader (Ultra Evolution, Tecan, Männedorf, Suiza). To determine cell viability, cells in exponential growth phase were seeded (100 µL/well in 96-well plates and 1000 µL/well in 24-well plates) with appropriate cell line concentration (1.5·10^4 cells/mL for MCF7 and HeLa, 3·10^4 cells/mL for HT-29, and 1·10^4 cells/mL for SKOV-3, OVCAR-3, OVCAR-8, IGROV-1, and A-2780) in complete RPMI 1640 or DMEM medium at 37°C and 5% CO2 atmosphere. After 24 h incubation, to allow cells to attach to the plates, all compounds were added at 1 µM concentration and the effect on the proliferation was evaluated 72 h post-treatment. […] Non-linear curves fitting the experimental data were carried out for each compound. Compounds were dissolved in DMSO and the final solvent concentrations never exceeded 0.5% (v/v). The control wells included […] with 0.5% (v/v) DMSO and the positive control. 10 µM verapamil was included as a control for the HT-29 cell line.

Structure (SMILES) | IC50 [1] [nM] | IC50 [2] [nM] | IC50 [3] [µM] | TPI % 10 µM ([3]; compound at 10 µM) [%] | solubility at 48 h [4] [µg/mL] | Effect on HT-29 cell proliferation [5]
COc1ccc(S(=O)(=O)Nc2cccnc2Nc2ccc(O)cc2)cc1 [ABT-751, reference compound] | 388 | 180 | 4.4 | 69 | 40 (≈ 108 µM) | 
COc1ccc(CCN(C)CCCC(C#N)(c2ccc(OC)c(OC)c2)C(C)C)cc1OC (stereo not drawn) [verapamil, reference compound] |  |  |  |  |  | did not affect cell proliferation
